Experimental data taken from patent publication US7638343B2, “Method to identify or evaluate compounds useful in the field of fragrances and aromas” (priority 2004, dated 2009).

Legend:
human respiratory tract [1] = test: Metabospace: real-time APCI-MS analysis of exhaled breath after inhalation of saturated headspace of test compound; format: in vivo; settings: for decrease of mass chromatogram signal intensity as a function of inhalation/exhalation cycles (release in exhaled breath): after nasal inhalation of the substrate, about 30 inhalation/exhalation cycles
Protocol: The “Metabospace” technology allows real-time detection and analysis of in vivo generated metabolites (exhaled volatiles) starting from compounds of interest. First, a test subject inhales the saturated headspace of a volatile compound. The saturated headspace may be provided as described in the examples herein-below. The breath is exhaled directly into a glass funnel, which works as interface to an analysis device where mass spectra are recorded by a quadrupole mass spectrometer equipped with an atmospheric pressure chemical ionization (APCI) ion source with a modified interface which allows the measurement of fast dynamic changes of volatiles as described in Grab, W., and Gfeller, H. In: ACS Symposium Series 763—Flavor Release (Roberts, D. D., and Taylor, A. J., Eds.) American Chemical Society, Washington, D.C. (2002). The procedure may be performed for example as described further in the examples herein below.
Mass spectrum scans detect the entire range of pseudomolecular ions as well as ions of fragments of molecules. If candidate metabolites are already known, e.g. from in vitro data, the mass chromatogram corresponding to the pseudomolecular ion can be directly visualized together with the chromatogram for the substrate. Acetone is always present in human breath and can be used to show the respiration pattern. Mass spectrum scans of volatiles either exhaled from the nasal or the oral cavity are recorded in narrow time spans, for example twice per second, to follow changes in breath composition as a function of time and respiration cycles. Usually, a series of scans are done to detect other ions that may be linked to the substrate and/or metabolites, which can e.g. be derived from fragments of the substrate and/or the metabolites, as is well-known to the person skilled in the art. Various mass spectrum scans are performed as is well known in the art. In the present invention, a large number of mass spectrum scans are be recorded by the mass spectrometer (for example 2 scans per second). The total ion chromatogram (TIC) gives the total of signals. Individual signals, e.g. the pseudomolecular ion [M+H]^+ for acetone at m/z 59, may be singled out and analysed over time in so-called “mass chromatograms”. Metabolites appear as additional signals in scans, and specific signals are followed over time in respective mass chromatograms. During the first inhalation/exhalation cycles, scans are analysed for ions which are present in exhalations following the inhalation of surrounding air (blank, background) and are not derived from the test compound or from metabolites. It is well known in the art how to identify unknown signals. Depending on the chemistry of the test compound and the possible metabolic reactions which can take place, particular ions are expected to occur if such metabolism takes place. To narrow down the possibilities, a hypothesis based on the test compound (enzyme substrate) and potential biotransformation reactions resulting in metabolites is used. For example, metabolites that result from reactions of the test compound with oxidizing enzymes belonging to the group of CYP enzymes may undergo metabolism including hydroxylation or epoxidation reactions, and specific signals for such metabolites may be generally found at the m/z number of the substrate plus 16. […]

[2] = target: T1, nasal metabolic enzyme CYP2A13 (Homo sapiens, UniProt Q16696); test: Metabospace with volatile suppressor inhaled immediately prior to test compound; format: in vivo; settings: suppressor (inhibitor of CYP2A13) inhaled immediately prior to test compound; compared with runs without suppressor
T1 construct: from tissue; host or cells: nasal cavity / respiratory tract of a living test subject
T1 sequence (Q16696 1-494): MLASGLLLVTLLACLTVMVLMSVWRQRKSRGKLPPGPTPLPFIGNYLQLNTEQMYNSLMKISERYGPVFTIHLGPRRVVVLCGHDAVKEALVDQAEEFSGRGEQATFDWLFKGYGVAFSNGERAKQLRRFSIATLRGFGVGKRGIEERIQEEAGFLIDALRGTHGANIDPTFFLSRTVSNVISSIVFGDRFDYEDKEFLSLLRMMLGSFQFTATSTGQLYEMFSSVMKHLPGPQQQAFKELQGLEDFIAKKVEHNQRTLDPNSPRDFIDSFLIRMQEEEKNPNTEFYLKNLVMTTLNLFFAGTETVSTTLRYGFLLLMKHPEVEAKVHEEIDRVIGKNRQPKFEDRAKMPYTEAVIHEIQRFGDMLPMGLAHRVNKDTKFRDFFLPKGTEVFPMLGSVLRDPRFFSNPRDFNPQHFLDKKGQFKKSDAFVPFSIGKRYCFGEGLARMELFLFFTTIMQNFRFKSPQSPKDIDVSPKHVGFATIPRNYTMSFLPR
Protocol: A volatile suppressor compound (inhibitor of nasal metabolic enzyme CYP2A13) is inhaled immediately prior to the inhalation of the test compound 2-methoxyacetophenone.
The test subject performs three runs in a row: (1) test compound only; (2) suppressor followed by test compound; (3) test compound only. Before and between runs, blank controls are recorded (inhalation of room air and recording of 30 inhalation/exhalation cycles).
The procedure is performed as described in example 6A, however, as a test compound ketanone is used and ketanone and its metabolite 4-(4-hydroxyphenyl)butan-2-one (raspberry ketone) are detected as described in example 5.

human respiratory tract [3] = test: Metabo-GM: exhaled breath trapped on Tenax TA resin, thermodesorption, GC-MS; format: in vivo
olfactory perception = settings: cited from earlier work; for olfactory threshold / odour intensity: raspberry aroma, Winter (1961) Helv. Chim. Acta 44:2110
carboxyl esterase = test: Metabo-GM with inhibitor of carboxyl esterase as suppressor inhaled before test compound; format: in vivo, human; settings: for proportion of detected metabolite with suppressor compared to analysis without suppressor: carboxyl esterase inhibitor inhaled first, then test compound; for metabolite detected in exhaled breath by GC-MS: without suppressor
Protocol: The procedure is performed as described in examples 7 and 10 subject to the following modifications:
As suppressor, an inhibitor for carboxyl esterase is used. As test compound, phenethylacetate is used, which is a substrate for carboxyl esterase.
The procedure is performed as described in example 12A with an inhibitor for carboxyl esterase as suppressor, subject to the following modifications:
As test compound, styrallylacetate is used, which is a substrate for carboxyl esterase.

carboxyl esterases = test: Cascade Olfactometer: perceived odour intensity and olfactory threshold of odorant with modulator (inhibitor of carboxyl esterases); format: in vivo, human
Protocol: A modulator is identified using an Olfactometer. As reference test compounds, odorant esters are used. A second test compound (potential modulator, modulator test compound) is tested in combination with these odorant test compounds. The odorant reference test compound is kept at a constant concentration with the modulator concentration being varied.
If metabolism is taking place, the amount of styrallylacetate which is stimulating the olfactory system is decreased.
A standard concentration (appropriate dilution of saturated headspace) of the odorant test compound is provided in one Olfactometer (cascade 1) as the reference, while in the second olfactometer (cascade 2) the odorant test compound is provided at the standard concentration supplemented with various concentrations of the modulator (appropriate dilutions of saturated headspace).
First, the threshold for the odorant styrallylacetate is determined for each test subject. The standard concentration is chosen so that it is perceived to be of week to moderate intensity as judged by each test subject.
The concentrations of the modulator test compound are chosen to be below the olfactory threshold of the test subject.
A sample is provided as headspace in a saturation chamber. The flow from said chamber is added to a carrier gas supply and mixed in a chamber which is connected with the sniffing port where a test subject detects the stimulus. Said flow (the headspace of the sample before addition to the carrier) is determined and adjusted so that the test subject rates said flow as medium intensity. This is the reference that is used in cascade 1. For styrallylacetate, a flow of 20 ml/min of the odorant is used. […]
The effect of the modulator on the olfactory threshold of styrallylacetate is determined in as follows. […]
Alternatively, a dose response curve is recorded using one olfactometer (Cascade 2) by providing samples above and below the detected olfactory threshold of the test subjects. This is compared to the known threshold of the compound which is recorded beforehand. […]

[4] = inhalation and exhalation both through the mouth

O=C(CO)c1ccccc1 [2-hydroxyacetophenone]
decrease of mass chromatogram signal intensity as a function of inhalation/exhalation cycles (release in exhaled breath) (human respiratory tract [1]): still near maximal intensity after 30 inhalation/exhalation recordings

COCC(=O)c1ccccc1 [2-methoxyacetophenone]
decrease of mass chromatogram signal intensity as a function of inhalation/exhalation cycles (release in exhaled breath) (human respiratory tract [1]): decreases relatively quickly, within about 30 inhalation/exhalation cycles
metabolite signal in exhaled breath (human respiratory tract [1]; first variant: inhalation and exhalation both through the mouth): no signal corresponding to the metabolite is detected
metabolite signal in exhaled breath in presence of suppressor [2]: considerably less metabolite is formed in presence of the suppressor
amount of metabolite detected in exhaled breath by GC-MS (human respiratory tract [3]; [4]): only in a small amount barely detectable
amount of metabolite detected in exhaled breath by GC-MS (human respiratory tract [3]; inhalation through the mouth, exhalation through the nose): significantly more metabolite is detected

CC(=O)CCc1ccc(O)cc1 [4-(4-hydroxyphenyl)butan-2-one]
olfactory threshold / odour intensity (olfactory perception): very low olfactory threshold

COc1ccc(CCC(C)=O)cc1 [ketanone]
decrease of mass chromatogram signal intensity as a function of inhalation/exhalation cycles (release in exhaled breath) (human respiratory tract [1]): retarded release of the more hydrophilic metabolite is observed
metabolite detected in exhaled breath (mass chromatogram signal) (human respiratory tract [1]; inhalation and exhalation through the nose, human test subject): a compound is detected at m/z 165 which corresponds to 4(4-hydroxyphenyl)butan-2-one (raspberry ketone)
metabolite signal in exhaled breath in presence of suppressor [2]: significantly decreased signal intensity for the metabolite
olfactory threshold / odour intensity (olfactory perception): significantly less intense

CC(=O)OCCc1ccccc1 [phenethylacetate]
proportion of detected metabolite with suppressor compared to analysis without suppressor (carboxyl esterase): about 50%
metabolite detected in exhaled breath by GC-MS (carboxyl esterase): phenethylalcohol is detected

CC(=O)OC(C)c1ccccc1 (stereo not drawn) [styrallylacetate]
proportion of detected metabolite with suppressor compared to analysis without suppressor (carboxyl esterase): significantly lower
metabolite detected in exhaled breath by GC-MS (carboxyl esterase): styrallylalcohol is detected
olfactory threshold combined with modulator versus odorant alone (carboxyl esterases; dose response curve, one olfactometer, modulator constant): lower than the determined olfactory threshold for styrallylacetate alone
perceived intensity of the odorant in presence of the potential modulator (carboxyl esterases; odorant flow 20 ml/min constant, modulator flow varied 1 to 900 ml/min, below its olfactory threshold, versus reference without modulator): intensity of the odorant is increased
odour intensity in presence of modulator versus reference (JND protocol) (carboxyl esterases; styrallylacetate 20 ml/min in both cascades, modulator 5 ml/min in cascade 2): stronger than the reference concentration
olfactory threshold relative to its metabolite (olfactory perception; compared with styrallylalcohol): lower threshold than its metabolite styrallylalcohol
amount of metabolite detected in exhaled breath by GC-MS (human respiratory tract [3]; [4]): Less styrallylalcohol (metabolite) is detected
metabolite detected in exhaled breath by GC-MS (human respiratory tract [3]; inhalation and exhalation through the nose): Significant amounts of styrallylalcohol and acetic acid (metabolites) are detected
